Data published in ChEMBL document CHEMBL5376026, “Design, synthesis, and antiproliferative evaluation of novel dehydroabietic acid-1,2,3-triazole-oxazolidinone hybrids” (RSC Med Chem, 2024).
Activity calls are given as the source filed them. The calls are words filed in the database; no cut-off is given here.

Experiments:
MGC-803 [1] = assay: Induction of apoptosis in human MGC-803 cells assessed as late apoptotic cells at 10 uM incubated for 48 hrs by Annexin-V FITC and PI staining based flow cytometry (reference value: 0.81%); format: functional
MGC-803 [2] = assay: Induction of apoptosis in human MGC-803 cells assessed as apoptosis rate at 2.5 uM incubated for 48 hrs by Annexin-V FITC and PI staining based flow cytometry (reference value: 0.42%); format: functional
MGC-803 [3] = assay: Induction of apoptosis in human MGC-803 cells assessed as apoptosis rate at 5 uM incubated for 48 hrs by Annexin-V FITC and PI staining based flow cytometry (reference value: 0.42%); format: functional
MGC-803 [4] = assay: Induction of cell cycle arrest in human MGC-803 cells assessed as accumulation of cells at G2/M phase at 2.5 uM incubated for 48 hrs by propidium iodide staining based flow cytometry (reference value: 16.81%); format: functional
MGC-803 [5] = assay: Induction of apoptosis in human MGC-803 cells assessed as necrotic cells at 2.5 uM incubated for 48 hrs by Annexin-V FITC and PI staining based flow cytometry (reference value: 0.68%); format: functional
HeLa = assay: Anticancer activity against human HeLa cells assessed as inhibition of cell growth incubated for 48 hrs by MTT assay; format: functional, cell-based
MGC-803 [6] = assay: Induction of cell cycle arrest in human MGC-803 cells assessed as accumulation of cells at G0/G1 phase at 2.5 uM incubated for 48 hrs by propidium iodide staining based flow cytometry (reference value: 50.67%); format: functional
MGC-803 [7] = assay: Induction of cell cycle arrest in human MGC-803 cells assessed as accumulation of cells at S phase at 2.5 uM incubated for 48 hrs by propidium iodide staining based flow cytometry (reference value: 33.22%); format: functional
MGC-803 [8] = assay: Induction of reactive oxygen species generation in human MGC-803 cells at 2.5 to 10 uM incubated for 48 hrs by DCFH-DA staining based fluorescence microscopic analysis; format: functional, cell-based; conditions: dose 2.5-10 µM
MGC-803 [9] = assay: Induction of apoptosis in human MGC-803 cells assessed as increase in apoptotic nuclei incubated for 48 hrs by Hoechst 33258 staining based fluorescence microscopic analysis; format: functional, cell-based; conditions: dose 2.5-10 µM
MGC-803 [10] = assay: Anticancer activity against human MGC-803 cells assessed as inhibition of cell growth incubated for 48 hrs by MTT assay; format: functional, cell-based; conditions: MGC-803, 48 h
MGC-803 [11] = assay: Induction of apoptosis in human MGC-803 cells assessed as early apoptotic cells at 2.5 uM incubated for 48 hrs by Annexin-V FITC and PI staining based flow cytometry (reference value: 0.20%); format: functional
MGC-803 [12] = assay: Induction of apoptosis in human MGC-803 cells assessed as viable cells at 2.5 uM incubated for 48 hrs by Annexin-V FITC and PI staining based flow cytometry (reference value: 98.3%); format: functional; conditions: read-out: Activity
MGC-803 [13] = assay: Induction of cell cycle arrest in human MGC-803 cells assessed as accumulation of cells at S phase at 10 uM incubated for 48 hrs by propidium iodide staining based flow cytometry (reference value: 33.22%); format: functional
MGC-803 [14] = assay: Induction of apoptosis in human MGC-803 cells assessed as viable cells at 5 uM incubated for 48 hrs by Annexin-V FITC and PI staining based flow cytometry (reference value: 98.3%); format: functional; conditions: read-out: Activity
MGC-803 [15] = assay: Induction of cell cycle arrest in human MGC-803 cells assessed as accumulation of cells at G2/M phase at 10 uM incubated for 48 hrs by propidium iodide staining based flow cytometry (reference value: 16.81%); format: functional
MGC-803 [16] = assay: Induction of cell cycle arrest in human MGC-803 cells assessed as accumulation of cells at G2/M phase at 5 uM incubated for 48 hrs by propidium iodide staining based flow cytometry (reference value: 16.81%); format: functional
MGC-803 [17] = assay: Induction of apoptosis in human MGC-803 cells assessed as necrotic cells at 10 uM incubated for 48 hrs by Annexin-V FITC and PI staining based flow cytometry (reference value: 0.68%); format: functional
MGC-803 [18] = assay: Induction of apoptosis in human MGC-803 cells assessed as necrotic cells at 5 uM incubated for 48 hrs by Annexin-V FITC and PI staining based flow cytometry (reference value: 0.68%); format: functional
T-24 = assay: Anticancer activity against human T-24 cells assessed as inhibition of cell growth incubated for 48 hrs by MTT assay; format: functional, cell-based; conditions: T-24, 48 h
MGC-803 [19] = assay: Induction of apoptosis in human MGC-803 cells assessed as late apoptotic cells at 5 uM incubated for 48 hrs by Annexin-V FITC and PI staining based flow cytometry (reference value: 0.81%); format: functional
MGC-803 [20] = assay: Induction of apoptosis in human MGC-803 cells assessed as early apoptotic cells at 5 uM incubated for 48 hrs by Annexin-V FITC and PI staining based flow cytometry (reference value: 0.20%); format: functional
MGC-803 [21] = assay: Induction of apoptosis in human MGC-803 cells assessed as apoptosis rate at 10 uM incubated for 48 hrs by Annexin-V FITC and PI staining based flow cytometry (reference value: 0.42%); format: functional
MGC-803 [22] = assay: Induction of cell cycle arrest in human MGC-803 cells assessed as accumulation of cells at S phase at 5 uM incubated for 48 hrs by propidium iodide staining based flow cytometry (reference value: 33.22%); format: functional
MGC-803 [23] = assay: Induction of apoptosis in human MGC-803 cells assessed as chromatin condensation incubated for 48 hrs by Hoechst 33258 staining based fluorescence microscopic analysis; format: functional, cell-based; conditions: dose 2.5-10 µM
MGC-803 [24] = assay: Induction of cell cycle arrest in human MGC-803 cells assessed as accumulation of cells at G0/G1 phase at 10 uM incubated for 48 hrs by propidium iodide staining based flow cytometry (reference value: 50.67%); format: functional
HepG2 = assay: Anticancer activity against human HepG2 cells assessed as inhibition of cell growth incubated for 48 hrs by MTT assay; format: functional, cell-based; conditions: HepG2, 48 h
MGC-803 [25] = assay: Induction of apoptosis in human MGC-803 cells assessed as early apoptotic cells at 10 uM incubated for 48 hrs by Annexin-V FITC and PI staining based flow cytometry (reference value: 0.20%); format: functional
MGC-803 [26] = assay: Induction of apoptosis in human MGC-803 cells assessed as late apoptotic cells at 2.5 uM incubated for 48 hrs by Annexin-V FITC and PI staining based flow cytometry (reference value: 0.81%); format: functional
MGC-803 [27] = assay: Induction of mitochondrial membrane potential loss in human MGC-803 cells at 2.5 uM incubated for 10 to 24 hrs by JC-1 staining based fluorescence microscopic assay; format: functional, cell-based; conditions: time 10-24 hrs
MGC-803 [28] = assay: Induction of apoptosis in human MGC-803 cells assessed as viable cells at 10 uM incubated for 48 hrs by Annexin-V FITC and PI staining based flow cytometry (reference value: 98.3%); format: functional; conditions: read-out: Activity
MGC-803 [29] = assay: Induction of cell cycle arrest in human MGC-803 cells assessed as accumulation of cells at G0/G1 phase at 5 uM incubated for 48 hrs by propidium iodide staining based flow cytometry (reference value: 50.67%); format: functional
[30] = Cytotoxicity against human LO2 cells assessed as reduction in cell viability incubated for 48 hrs by MTT assay; format: toxicity, cell-based, L02

SMILES: CC(C)c1ccc2c(c1)CC[C@H]1[C@](C)(C(=O)OCc3cn(CC4CN(c5ccc(Br)cc5)C(=O)O4)nn3)CCC[C@]21C (stereo partly drawn)
- Activity (MGC-803 [1]): 2.64%
- Activity (MGC-803 [2]): 6%
- Activity (MGC-803 [3]): 8.87%
- Activity (MGC-803 [4]): 13.7%
- Activity (MGC-803 [5]): 1.32%
- IC50 (HeLa): 25.3 µM
- Activity (MGC-803 [6]): 52.14%
- Activity (MGC-803 [7]): 34.79%
- Activity (MGC-803 [8]): Active
- Activity (MGC-803 [9]): Dose-Dependent Effect
- IC50 (MGC-803 [10]): 3.18 µM
- Activity (MGC-803 [11]): 4.89%
- viability at 2.5 µM (MGC-803 [12]): 87.5%
- Activity (MGC-803 [13]): 33.22%
- viability at 5 µM (MGC-803 [14]): 68.8%
- Activity (MGC-803 [15]): 11.23%
- Activity (MGC-803 [16]): 12.52%
- Activity (MGC-803 [17]): 1.25%
- Activity (MGC-803 [18]): 2.9%
- IC50 (T-24): 14.2 µM
- Activity (MGC-803 [19]): 12%
- Activity (MGC-803 [20]): 16.2%
- Activity (MGC-803 [21]): 33.34%
- Activity (MGC-803 [22]): 33.63%
- Activity (MGC-803 [23]): Dose-Dependent Effect
- Activity (MGC-803 [24]): 55.64%
- IC50 (HepG2): 11.7 µM
- Activity (MGC-803 [25]): 82.1%
- Activity (MGC-803 [26]): 6.25%
- Activity (MGC-803 [27]): Active
- viability at 10 µM (MGC-803 [28]): 14%
- Activity (MGC-803 [29]): 54.14%
- IC50 at 48 h [30]: 40 µM
